The term MIC denotes the least concentration at which growth counts as inhibited.

The test system of experiment [1] is HL053PA1 strain (RT4 strain) and HL110PA3 strain (RT6 strain). The experiment in a line: Coculture test, coculturing strain suspension-1. Type of experiment: cell-based, Propionibacterium acnes. Further details: dose or concentration left out as unconfirmed. The conditions noted are these: pH 6.0, 2 days (FIG. 2a). An excerpt: Acne bacteria strains (HL053PA1 strain (RT4 strain), HL043PA1 strain (RT5 strain), and HL110PA3 strain (RT6 strain)) were respectively precultured in the same manner as in Example 1.
The HL053PA1 strain (RT4 strain) and the HL110PA3 strain (RT6 strain) were suspended in a modified GAM broth liquid medium (pH 6.0) respectively at a concentration of 5.0×10^4 cfu/mL. Similarly, the HL043PA1 strain (RT5 strain) and the HL110PA3 strain (RT6 strain) were suspended respectively at a concentration of 5.0×10^4 cfu/mL. The suspensions were respectively designated as coculturing strain suspensions-1, and -2.
[…] Using a sample to which only 0.5% of DMSO was added as a control, it was confirmed that the influence of the solvent on the growth of each bacterium strain could be neglected.
The test sample was statically cultured under anaerobic conditions at 37° C. for 2 days. After the culture, part of the culture solution was cultured under anaerobic conditions on a GAM broth agar plate (pH 7) for 3 days. The bacterium strains were identified based on the morphology (particularly size) of the emerged colonies, and the viable cell count (cfu/mL) of each bacterium strain was measured. From the measurement results, the proportion of each bacterium strain in the entire microbial cells was calculated (FIG. 2).

Experiment [2] relates to dominant strain in acne patients (RT4 strain and/or RT5 strain). As to the kind of experiment: MIC against dominant strain in acne patients. The class given is cell-based, Propionibacterium acnes. Particulars: Cutibacterium acnes, in the pH range tested in the Examples. The procedure:
The antibacterial activity of a test substance was determined based on the minimum inhibitory concentration (MIC). An MIC was measured according to the broth microdilution method which is the standard method of Japanese Society of Chemotherapy.
Each of strain suspensions (5.0×10^4 cfu/mL) was aliquoted in a 96-well round bottom microplate, each of the test substance (fatty acid concentration 10,000 μg/mL) was added at a 1/10 volume to the aliquot and mixed to prepare measurement samples (fatty acid concentration: 1,000 μg/mL). Measurement samples in 2-fold dilution series were prepared using the strain suspension (fatty acid concentration from 0.48 to 1,000 μg/mL). Using a sample containing only the solvent (DMSO) as a control, it was confirmed that the influence of the solvent on the growth of each strain could be neglected.
The measurement samples were incubated under an anaerobic condition at 37° C. for 2 days. The presence or absence of a precipitation of test microbial cells after the incubation was examined and the minimum concentration at which the precipitation of microbial cells […] was regarded as the MIC (μg/mL) of the test substance against the acne bacterium strain.

Structures are written as SMILES.

As for `CCCCCCCCCCCCCCC(=O)O` [Pentadecanoic acid (C15:0), Pentadecanoic acid], the “Growth of the dominant strain in acne patients in coculture with RT6 strain” value in experiment [1] is reported as “suppressed selectively”.

Turning to `CCCCCCCCCCCCCCCCC(=O)O` [Heptadecanoic acid (C17:0), Heptadecanoic acid], the minimal inhibitory concentration (MIC) in experiment [2] was ≤ 62.5 µg/mL.

The values are drawn from patent publication US20190247353A1, “ACNE STRAIN-SELECTIVE ANTIBACTERIAL AGENT” (MOMOTANI JUNTENKAN CO., LTD., priority 2016, published 2019).
